According to US20160303122A1, “TREATMENT OF HEPATITIS B VIRAL” (Southern Research Institute, priority 2015, published 2016):
Like-named read-outs stand apart in the source and are kept apart here.

Legend:
[1] = Cell Titer 96 (Toxicity) in the secondary assay; format: cell-based; details: human, HepG2 2.2.15 cells (confluent cultures), unit from conc. ranges in the 1st table, read-out: CC50 - compound concentration that reduces cell viability by 50%
[2] = system: Hepatitis B virus; assay: Secondary anti-Hepatitis B virus assay, quantitative polymerase chain reaction (intracellular DNA); format: cell-based, Hepatitis B virus (Hepatitis B-adr); details: for Sl50 - CC50/EC50 / Sl90 - CC50/EC90: selectivity index; for EC50 / EC90: Hepatitis B-adr, intracellular DNA by qPCR, vehicle DMSO, unit from conc. ranges in the 1st table; for EC50: read-out: EC50 - compound concentration that reduces viral replication by 50%; for EC90: read-out: EC90 - compound concentration that reduces viral replication by 90%
Experimental: (§1) Hepatitis B antiviral assays (Korba & Gerin, 1992, Antivir. Res. 19:55) are conducted using confluent cultures of 2.2.15 cells (genotype ayw; parental cell HepG2) maintained on 96-well flat-bottomed tissue culture plates (confluence in this culture system is required for active, high levels of Hepatitis B replication equivalent to that observed in chronically-infected individuals (Sells, et al., 1988, J. Virol. 62:2836; Korba and Gerin, 1992, Antivir. Res. 19:55). Cultures are treated for 7 days. Typically, 4 doses (10-fold or 3-fold steps), in triplicate are used. Hepatitis B DNA levels in the culture medium (representing Hepatitis B virion production) are assessed by quantitative blot hybridization 24 hrs. after the last treatment. Cytotoxicity is assessed by uptake of neutral red dye 24 hr. following the last treatment. Lamivudine (LMV) is used as the standard assay control, but other control compounds are also available.
EC50, EC90 and CC50 values are calculated by linear regression analysis (MS EXCEL®, QuattroPro®) using data combined from all treated cultures (Korba & Gerin, 1992, Antivir. Res. 19:55; Okuse, et al., 2005, Antivir. Res. 65:23). Standard deviations for EC50 and EC90 values are calculated from the standard errors generated by the regression analyses. EC50 and EC90 are drug concentrations at which a 2-fold, or a 10-fold depression of Hepatitis B DNA (relative to the average levels in untreated cultures), respectively, is observed. CC50 is the drug concentration at which a 2-fold lower level of neutral red dye uptake (relative to the average levels in untreated cultures) is observed. The Selectivity index (S.I.) is calculated as CC50/EC90 since at least a 3-fold depression of Hepatitis B DNA levels is typically required to achieve statistical significance in this assay system (Korba & Gerin, 1992, Antivir. Res. 19:55).
Confluent cultures of HepG2 2.2.15 cells maintained on 48-well flat-bottomed tissue culture plates are treated as described for the primary assay. Hepatitis B virion DNA levels in the culture medium and cytotoxicity are assessed as described for the primary assay. […] Res. 19:55). EC50, EC90, and S.I. values are calculated for both virion DNA and intracellular Hepatitis B DNA replication intermediates.

[3] = system: Hepatitis B virus; assay: Primary anti-Hepatitis B virus assay (primary screen); format: cell-based; details: data confirmed in the secondary assay
Experimental: as §1
EC50, EC90 and CC50 values are calculated by linear regression analysis (MS EXCEL®, QuattroPro®) using data combined from all treated cultures (Korba & Gerin, 1992, Antivir. Res. 19:55; Okuse, et al., 2005, Antivir. Res. 65:23). Standard deviations for EC50 and EC90 values are calculated from the standard errors generated by the regression analyses. […]

[4] = system: HepG2 2.2.15; assay: Cell Titer 96 (Toxicity) in the secondary assay; format: cell-based; details: HepG2 2.2.15 cells, unit from conc. ranges in the 1st table, read-out: CC50 - compound concentration that reduces cell viability by 50%
[5] = Hepatitis B virus, HepG2 2.2.15, HepG2 2.2.15 cells
[6] = HepG2 2.2.15 cells, listed as 3TC (1)
[7] = HepG2 2.2.15 cells, listed as 3TC (2)
[8] = HepG2 2.2.15 cells, listed as 3TC (3)

Compound | CC50 at 7 days [1] [nM] | Sl50 - CC50/EC50 ([2]; HepG2 2.2.15 cells) | Sl90 - CC50/EC90 ([2]; HepG2 2.2.15 cells) | EC50 [2, 5] [nM] | EC90 [2, 5] [nM] | activity in the primary screen [3] | CC50 ([4]; listed as 3TC (1)) [nM] | CC50 ([4]; listed as 3TC (2)) [nM] | CC50 ([4]; listed as 3TC (3)) [nM] | EC50 [2, 6] [nM] | EC90 [2, 6] [nM] | EC90 [2, 7] [nM] | EC50 [2, 8] [nM] | EC90 [2, 8] [nM] | Sl50 - CC50/EC50 [2, 6] | Sl50 - CC50/EC50 [2, 7] | Sl50 - CC50/EC50 [2, 8]
CCC[C@H](Nc1nc(-c2ccc(NC(=O)NCC)c(OC)c2)ncc1C)c1cccnc1 (stereo in doubt) [Compound 1A, 1-ethyl-3-(2-methoxy-4-(5-methyl-4-((1-(pyridine-3-yl)butyl)amino)pyrimidin-2-yl)phenyl)urea] | 25400 | >80 | 1 | < 320 | 710 | active | – | – | – | – | – | – | – | – | – | – | –
Nc1ccn([C@@H]2CS[C@H](CO)O2)c(=O)n1 [Compound 3TC, 2′,3′-dideoxy-3′-thiacytidine] | – | – | 1 | 60 | – | – | > 500 | > 1000 | > 2000 | 40 | > 500 | > 1000 | 50 | > 2000 | >12 | >15 | >43
